Reference: PMC10726358 (Journal of Medicinal Chemistry, 2023)

Key:
[1] = system: BET BD2; settings: cited from earlier work
[2] = system: BRD4 BD1; settings: literature compound, no reference given; cited from earlier work
[3] = system: BRD4 BD2; assay: BRD4 BD2 TR-FRET assay; type: binding, human
Protocol: (§1) As a strategic decision, every compound synthesized across all of GSK’s bromodomain research projects was tested in both a BRD4 BD1 and a BRD4 BD2 TR-FRET assay as part of tier 1 data generation. […] LipE is a straightforward, yet powerful metric for medicinal chemistry teams to normalize potency relative to lipophilicity, a critical factor both for parameters of the human dose equation and also for promiscuity.[43],[44] To aid interpretation, diagonal lines representing different LipE values are shown, with the most desirable space found toward the top left-hand area of the plot representing molecules with the comparatively highest potency per unit of lipophilicity.
(§2) All TR-FRET and hWB cytokine assays have been described previously.[54]

[4] = CAD aqueous solubility
Protocol: (§3) To understand cellular target engagement, 21 was tested in an LPS-stimulated hWB assay measuring inhibition of the inflammatory mediator MCP-1 secretion.
ChromatographicLogD at pH 7.4, artificial membrane permeability, CLND solubility, and CAD solubility were measured using published protocols.[55]

[5] = pKa of the basic amine
[6] = system: MCP-1; assay: LPS-stimulated human whole blood (hWB) MCP-1 release assay; type: cell-based; settings: LPS-stimulated human whole blood; read-out: hWB MCP-1 pIC50 (converted)
Excerpt: The utility of a chemical probe in target validation is directly related to its quality, with important publications detailing requirements to aid researchers.[36]−[38] […] It was accepted that selectivity would be judged initially through a mutant BRD4 TR-FRET assay and would likely shift depending on the protein construct and assay format. […] Previous studies have shown that BET BD1 inhibition is sufficient to inhibit in vitro production of MCP-1 in LPS-stimulated hWB and, as such, served as a relevant measure of cellular target engagement and, concomitantly, proof of cellular permeability.[12],[39] Selectivity over other human bromodomains outside of the BET family, known collectively as non-BET bromodomains, was also required,[40] with a ≥ 100-fold selectivity window targeted. To ensure the molecules remained within developable chemical space, a target property forecast index (PFI) as defined by chromLogDpH7.4 + number of aromatic rings ≤6 was set.[41]
as §3, §2

[7] = Chromatographic LogD at pH 7.4; settings: pH 7.4
[8] = system: BRD4 BD1; type: binding, human; settings: TR-FRET
Protocol: as §1, §2

[9] = system: BET BD1; settings: cited from earlier work
[10] = CLND kinetic aqueous solubility; settings: aqueous (buffer not specified)

In the case of `CCNC(=O)c1cc2c(-c3cc(C(C)(C)O)ccc3Oc3c(C)cc(F)cc3C)cn(C)c(=O)c2[nH]1` [ABBV-744], the “BD2 selectivity over BET BD1” value [1] is listed as 330 fold.
For `COc1cc(OC)c2c(=O)[nH]c(-c3cc(C)c(OCCO)c(C)c3)nc2c1` [Apabetalone/RVX-208], the “BD2 selectivity over BET BD1” value [1] is given as 10 fold.
For `COc1ccccc1S(=O)(=O)Nc1ccc2c3c(cc(-n4cnc(C)c4)nc13)C(=O)N2C` [LT052], the IC50 [2] is given as 88 nM and the “selectivity for BRD4 BD1 over BRD4 BD2” value [2] is given as 138 fold.
In the case of `Cc1cc(-c2nc3ccccc3n2C[C@@H]2CCCN(C(=O)C3CCN(CC(F)F)CC3)C2)cn(C)c1=O` [Compound 35, (S)-5-(1-((1-(1-(2,2-Difluoroethyl)piperidine-4-carbonyl)piperidin-3-yl)methyl)-1H-benzo[d]imidazole-2-yl)-1,3-dimethylpyridin-2(1H)-one], the “BRD4 BD2 FRET pIC50” value [3] is reported as 4.7, the solubility [4] is reported as ≥ 279 µg/mL and the pKa [5] is reported as 4.2. For the same compound, the IC50 [6] was 631 nM, the chromatographic logD [7] was 3.2 and the “BRD4 BD1 FRET pIC50” value [8] was 6.7. For the same compound, the “fold selectivity (BRD4 BD1 over BRD4 BD2)” value (“fold selectivity” for short) [8] was 100 fold.
In the case of `COCc1nc2cnc3cc(-c4c(C)noc4C)c(OC[C@H]4CCNC4)cc3c2n1[C@H](C)c1ccccc1` [GSK778], the IC50 [9] is given as < 100 nM and the “selectivity for BET BD1 over BET BD2” value [9] is given as 30–140 fold.
In the case of `Cc1cc(-c2nc3ccccc3n2C[C@@H]2CCCNC2)cn(C)c1=O` [Compound 19, (R)-1,3-Dimethyl-5-(1-(piperidin-3-ylmethyl)-1H-benzo[d]imidazole-2-yl)pyridin-2(1H)-one], the solubility [10] is reported as ≥ 152 µg/mL, the “BRD4 BD2 FRET pIC50” value [3] is reported as 5.0 and the chromatographic logD [7] is reported as 0.7. For the same compound, the “BRD4 BD1 FRET pIC50” value [8] was 6.2 and the “fold selectivity” value [8] was 16 fold.
For `Cc1cc(-c2nc3ccccc3n2C[C@@H]2CCCN(C(=O)C3CCN(CCF)CC3)C2)cn(C)c1=O` [Compound 34, (S)-5-(1-((1-(1-(2-Fluoroethyl)piperidine-4-carbonyl)piperidin-3-yl)methyl)-1H-benzo[d]imidazole-2-yl)-1,3-dimethylpyridin-2(1H)-one], the “BRD4 BD2 FRET pIC50” value [3] was 4.7, the solubility [4] was ≥ 207 µg/mL and the pKa [5] was 7.3. The IC50 [6] was 63.1 nM, the chromatographic logD [7] was 2.5 and the “BRD4 BD1 FRET pIC50” value [8] was 7.6. The “fold selectivity” value [8] was 794 fold.
